Bridge positions count the residues as written; N and C are the ends. Ends that are not written are not given here. cellulose = not defined here; βAla = NCCC(=O)O
Tests used:
Format in all cases: binding
Set-up in all cases: key: No binding of immunoglobulin for the defined peptide variant, detection negative: 0; Binding of immunoglobulin for the defined peptide variant, detection positive: +
serum albumin = assay: Cellulose-immobilized 13-mer peptide variants incubated with serum albumin (negative control), anti-human IgG-AP detection; details: blocking buffer without addition, 3 h room temperature
Description: (§1) Peptides consisting of 13 amino acids were synthesized by solid phase synthesis (Houghten, 1985) on a cellulose matrix with (βA)(βA) as a spacer group.
(§2) The immobilized peptides were tested for their immunoglobulin binding capability by incubation with human IgG-Fc in a buffered solution and by incubation with human plasma.
(§3) Thus, the peptide variants immobilized on solid phases were washed with T-TBS buffer (136 mM NaCl, 1.6 mM KCl, 0.05% (v/v) Tween 20, 50 mM Tris-HCl, pH 8.0) and subsequently treated with blocking buffers (5% (w/v) saccharose, 4% (w/v) bovine serum albumin in T-TBS). Incubation of the immobilized peptides with IgG-Fc (1 μg/ml) in blocking buffer and human serum (diluted 1:10,000 in blocking buffer) was effected for 3 h at room temperature. For checking the specificity of the binding, buffered serum albumin solution (blocking buffer) without addition was included as a control. Thereafter, the peptide variants immobilized on the solid phases were washed three more times with T-TBS buffer.
(§4) After incubation with alkaline phosphatase-conjugated anti-human IgG antibody (1.2 μg/ml) in blocking buffer, detection of the immunoglobulin binding was effected by means of NBT (nitroblue tetrazolium chloride)/BCIP (5-bromo-4-chloro-3-indolyl phosphate toluidine salt) as a substrate (200 μl of parent solution (18.75 mg/ml NBT and 9.4 mg/ml BCIP in 67% (v/v) DMSO) in 10 ml developing buffer (100 mM Tris-HCl, 100 mM NaCl, 5 mM MgCl2, pH 9.5)).

[1] = system: immunoglobulins in human plasma; assay: Cellulose-immobilized 13-mer peptide variants incubated with human plasma, anti-human IgG-AP detection; details: human plasma as sample, diluted 1:10,000 in blocking buffer, 3 h room temperature
Description: as §1, §2, §3, §4

human IgG-Fc = assay: Cellulose-immobilized 13-mer peptide variants incubated with human IgG-Fc, anti-human IgG-AP detection; details: IgG-Fc 1 μg/ml in blocking buffer, 3 h room temperature
Description: as §1, §2, §3, §4

## 03E: cellulose-bound 13-mer variant DCEWHLGELVWCT-(βA)(βA) (DCEWHLGELVWCT-{βAla-βAla-cellulose}; disulfide 2-12 (inferred); reading uncertain; also: printed as DCEWHLGELVWCT-(βA)(βA))
Serum albumin
  Result for incubation with serum albumin (immunoglobulin binding detection): 0
[1]
  Result for incubation with human plasma (immunoglobulin binding detection): 0
Human IgG-Fc
  Result for incubation with human IgG-Fc (immunoglobulin binding detection): +

## 03F: cellulose-bound 13-mer variant DCFWHLGELVWCT-(βA)(βA) (DCFWHLGELVWCT-{βAla-βAla-cellulose}; disulfide 2-12 (inferred); reading uncertain; also: printed as DCFWHLGELVWCT-(βA)(βA))
Serum albumin
  Result for incubation with serum albumin (immunoglobulin binding detection): 0
[1]
  Result for incubation with human plasma (immunoglobulin binding detection): 0
Human IgG-Fc
  Result for incubation with human IgG-Fc (immunoglobulin binding detection): 0

## 03G: cellulose-bound 13-mer variant DCGWHLGELVWCT-(βA)(βA) (DCGWHLGELVWCT-{βAla-βAla-cellulose}; disulfide 2-12 (inferred); reading uncertain; also: printed as DCGWHLGELVWCT-(βA)(βA))
Serum albumin
  Result for incubation with serum albumin (immunoglobulin binding detection): 0
[1]
  Result for incubation with human plasma (immunoglobulin binding detection): 0
Human IgG-Fc
  Result for incubation with human IgG-Fc (immunoglobulin binding detection): 0

## 03H: cellulose-bound 13-mer variant DCHWHLGELVWCT-(βA)(βA) (DCHWHLGELVWCT-{βAla-βAla-cellulose}; disulfide 2-12 (inferred); reading uncertain; also: printed as DCHWHLGELVWCT-(βA)(βA))
Serum albumin
  Result for incubation with serum albumin (immunoglobulin binding detection): 0
[1]
  Result for incubation with human plasma (immunoglobulin binding detection): 0
Human IgG-Fc
  Result for incubation with human IgG-Fc (immunoglobulin binding detection): 0

## 03I: cellulose-bound 13-mer variant DCIWHLGELVWCT-(βA)(βA) (DCIWHLGELVWCT-{βAla-βAla-cellulose}; disulfide 2-12 (inferred); reading uncertain; also: printed as DCIWHLGELVWCT-(βA)(βA))
Serum albumin
  Result for incubation with serum albumin (immunoglobulin binding detection): 0
[1]
  Result for incubation with human plasma (immunoglobulin binding detection): 0
Human IgG-Fc
  Result for incubation with human IgG-Fc (immunoglobulin binding detection): 0

## 03K: cellulose-bound 13-mer variant DCKWHLGELVWCT-(βA)(βA) (DCKWHLGELVWCT-{βAla-βAla-cellulose}; disulfide 2-12 (inferred); reading uncertain; also: printed as DCKWHLGELVWCT-(βA)(βA))
Serum albumin
  Result for incubation with serum albumin (immunoglobulin binding detection): 0
[1]
  Result for incubation with human plasma (immunoglobulin binding detection): 0
Human IgG-Fc
  Result for incubation with human IgG-Fc (immunoglobulin binding detection): +

## 03L: cellulose-bound 13-mer variant DCLWHLGELVWCT-(βA)(βA) (DCLWHLGELVWCT-{βAla-βAla-cellulose}; disulfide 2-12 (inferred); reading uncertain; also: printed as DCLWHLGELVWCT-(βA)(βA))
Serum albumin
  Result for incubation with serum albumin (immunoglobulin binding detection): 0
[1]
  Result for incubation with human plasma (immunoglobulin binding detection): 0
Human IgG-Fc
  Result for incubation with human IgG-Fc (immunoglobulin binding detection): 0

## 03M: cellulose-bound 13-mer variant DCMWHLGELVWCT-(βA)(βA) (DCMWHLGELVWCT-{βAla-βAla-cellulose}; disulfide 2-12 (inferred); reading uncertain; also: printed as DCMWHLGELVWCT-(βA)(βA))
Serum albumin
  Result for incubation with serum albumin (immunoglobulin binding detection): 0
[1]
  Result for incubation with human plasma (immunoglobulin binding detection): 0
Human IgG-Fc
  Result for incubation with human IgG-Fc (immunoglobulin binding detection): 0

## 03N: cellulose-bound 13-mer variant DCNWHLGELVWCT-(βA)(βA) (DCNWHLGELVWCT-{βAla-βAla-cellulose}; disulfide 2-12 (inferred); reading uncertain; also: printed as DCNWHLGELVWCT-(βA)(βA))
Serum albumin
  Result for incubation with serum albumin (immunoglobulin binding detection): 0
[1]
  Result for incubation with human plasma (immunoglobulin binding detection): 0
Human IgG-Fc
  Result for incubation with human IgG-Fc (immunoglobulin binding detection): 0

## 03P: cellulose-bound 13-mer variant DCPWHLGELVWCT-(βA)(βA) (DCPWHLGELVWCT-{βAla-βAla-cellulose}; disulfide 2-12 (inferred); reading uncertain; also: printed as DCPWHLGELVWCT-(βA)(βA))
Serum albumin
  Result for incubation with serum albumin (immunoglobulin binding detection): 0
[1]
  Result for incubation with human plasma (immunoglobulin binding detection): 0
Human IgG-Fc
  Result for incubation with human IgG-Fc (immunoglobulin binding detection): 0

## 03Q: cellulose-bound 13-mer variant DCQWHLGELVWCT-(βA)(βA) (DCQWHLGELVWCT-{βAla-βAla-cellulose}; disulfide 2-12 (inferred); reading uncertain; also: printed as DCQWHLGELVWCT-(βA)(βA))
Serum albumin
  Result for incubation with serum albumin (immunoglobulin binding detection): 0
[1]
  Result for incubation with human plasma (immunoglobulin binding detection): 0
Human IgG-Fc
  Result for incubation with human IgG-Fc (immunoglobulin binding detection): +

## 03R: cellulose-bound 13-mer variant DCRWHLGELVWCT-(βA)(βA) (DCRWHLGELVWCT-{βAla-βAla-cellulose}; disulfide 2-12 (inferred); reading uncertain; also: printed as DCRWHLGELVWCT-(βA)(βA))
Serum albumin
  Result for incubation with serum albumin (immunoglobulin binding detection): 0
[1]
  Result for incubation with human plasma (immunoglobulin binding detection): 0
Human IgG-Fc
  Result for incubation with human IgG-Fc (immunoglobulin binding detection): 0

## 03S: cellulose-bound 13-mer variant DCSWHLGELVWCT-(βA)(βA) (DCSWHLGELVWCT-{βAla-βAla-cellulose}; disulfide 2-12 (inferred); reading uncertain; also: printed as DCSWHLGELVWCT-(βA)(βA))
Serum albumin
  Result for incubation with serum albumin (immunoglobulin binding detection): 0
[1]
  Result for incubation with human plasma (immunoglobulin binding detection): +
Human IgG-Fc
  Result for incubation with human IgG-Fc (immunoglobulin binding detection): +

## 03T: cellulose-bound 13-mer variant DCTWHLGELVWCT-(βA)(βA) (DCTWHLGELVWCT-{βAla-βAla-cellulose}; disulfide 2-12 (inferred); reading uncertain; also: printed as DCTWHLGELVWCT-(βA)(βA))
Serum albumin
  Result for incubation with serum albumin (immunoglobulin binding detection): 0
[1]
  Result for incubation with human plasma (immunoglobulin binding detection): +
Human IgG-Fc
  Result for incubation with human IgG-Fc (immunoglobulin binding detection): +

## 03V: cellulose-bound 13-mer variant DCVWHLGELVWCT-(βA)(βA) (DCVWHLGELVWCT-{βAla-βAla-cellulose}; disulfide 2-12 (inferred); reading uncertain; also: printed as DCVWHLGELVWCT-(βA)(βA))
Serum albumin
  Result for incubation with serum albumin (immunoglobulin binding detection): 0
[1]
  Result for incubation with human plasma (immunoglobulin binding detection): 0
Human IgG-Fc
  Result for incubation with human IgG-Fc (immunoglobulin binding detection): 0

## 03W: cellulose-bound 13-mer variant DCWWHLGELVWCT-(βA)(βA) (DCWWHLGELVWCT-{βAla-βAla-cellulose}; disulfide 2-12 (inferred); reading uncertain; also: printed as DCWWHLGELVWCT-(βA)(βA))
Serum albumin
  Result for incubation with serum albumin (immunoglobulin binding detection): 0
[1]
  Result for incubation with human plasma (immunoglobulin binding detection): 0
Human IgG-Fc
  Result for incubation with human IgG-Fc (immunoglobulin binding detection): 0

— patent US7205382B2, “Peptides, the production and use thereof for binding immunoglobulins” (Fresenius Medical Care Affina GmbH, priority 2000, dated 2007)
